In ChEMBL document CHEMBL1132638, “New (sulfonyloxy)piperazinyldibenzazepines as potential atypical antipsychotics: chemistry and pharmacological evaluation” (J Med Chem, 1999):

Legend:
[1] = Partition coefficient (logP); format: physicochemical; conditions: octanol/water
D(4) dopamine receptor [2] = target: T1, D(4) dopamine receptor (Homo sapiens, UniProt P21917); assay: Binding affinity towards human D4.2 receptor
T1 sequence (P21917 whole entry): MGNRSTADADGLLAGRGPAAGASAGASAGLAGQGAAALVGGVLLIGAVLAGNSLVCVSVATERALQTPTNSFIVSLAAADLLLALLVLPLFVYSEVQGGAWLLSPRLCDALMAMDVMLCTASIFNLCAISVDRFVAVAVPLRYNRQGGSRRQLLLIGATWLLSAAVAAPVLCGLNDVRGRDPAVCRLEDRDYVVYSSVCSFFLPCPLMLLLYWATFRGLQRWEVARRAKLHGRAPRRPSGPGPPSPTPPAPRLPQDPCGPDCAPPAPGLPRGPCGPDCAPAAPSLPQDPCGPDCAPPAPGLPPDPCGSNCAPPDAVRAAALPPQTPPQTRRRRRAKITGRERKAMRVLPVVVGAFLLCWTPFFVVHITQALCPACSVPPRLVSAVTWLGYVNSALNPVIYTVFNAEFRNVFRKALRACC

Mus musculus [3] = assay: Inhibition of apomorphine induced climbing affects in mice by administering the compound perorally in mice; format: functional
Mus musculus [4] = assay: Inhibition of apomorphine induced climbing affects in mice by administering the compound subcutaneously in mice; format: functional; conditions: sc
[5] = target: T2, Muscarinic acetylcholine receptor M1 (Homo sapiens, UniProt P11229); assay: Inhibition of binding of 1.0 nM [3H]pirenzepine to cloned human Muscarinic acetylcholine receptor M1 expressed in membranes from CHO-K1 cells; format: cell-based
T2 sequence (P11229 whole entry): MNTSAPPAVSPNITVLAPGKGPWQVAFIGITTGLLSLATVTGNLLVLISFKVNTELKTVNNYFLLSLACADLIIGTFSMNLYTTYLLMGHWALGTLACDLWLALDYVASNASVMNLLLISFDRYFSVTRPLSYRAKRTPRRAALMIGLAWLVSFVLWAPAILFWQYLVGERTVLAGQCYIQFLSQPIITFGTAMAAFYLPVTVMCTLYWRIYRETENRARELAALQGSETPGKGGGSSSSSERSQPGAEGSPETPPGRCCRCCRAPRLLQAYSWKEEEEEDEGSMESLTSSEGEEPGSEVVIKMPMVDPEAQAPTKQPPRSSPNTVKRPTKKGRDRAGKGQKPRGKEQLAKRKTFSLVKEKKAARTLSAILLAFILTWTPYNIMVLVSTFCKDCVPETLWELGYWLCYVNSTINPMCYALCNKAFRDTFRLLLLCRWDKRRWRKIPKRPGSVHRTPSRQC

Rattus norvegicus [6] = assay: Compound is measured for inhibition of catalepsy in rat by peroral administration of compound; format: functional; conditions: po
Rattus norvegicus [7] = assay: Inhibition of catalepsy in rat by subcutaneous administration of compound; format: functional; conditions: sc
[8] = Therapeutic ratio by Peroral dose of administration (quotient ED50 catalepsy/ED50 climbing); format: ADME, organism-based; conditions: in vivo, po; read-out: Therapeutic ratio
[9] = Delta ED50 value by Subcutaneous administration (ED50 catalepsy-ED50 Climbing); format: functional
[10] = Delta ED50 value by peroral administration (ED50 catalepsy-ED50 Climbing); format: functional
D(3) dopamine receptor = D(3) dopamine receptor (Homo sapiens, UniProt P35462)
Chain of D(3) dopamine receptor (P35462 whole entry): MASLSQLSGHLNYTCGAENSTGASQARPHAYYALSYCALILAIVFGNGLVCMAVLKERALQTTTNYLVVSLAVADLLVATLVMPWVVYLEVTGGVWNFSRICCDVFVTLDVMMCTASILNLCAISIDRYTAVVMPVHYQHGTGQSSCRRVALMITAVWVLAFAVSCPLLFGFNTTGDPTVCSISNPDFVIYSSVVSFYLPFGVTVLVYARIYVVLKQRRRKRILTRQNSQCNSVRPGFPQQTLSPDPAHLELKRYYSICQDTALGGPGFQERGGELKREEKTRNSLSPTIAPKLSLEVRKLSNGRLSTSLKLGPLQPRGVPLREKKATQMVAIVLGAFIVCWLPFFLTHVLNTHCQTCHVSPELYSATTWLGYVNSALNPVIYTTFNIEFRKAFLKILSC
Description: Binding affinity towards human Dopamine receptor D3

in vivo = conditions: sc
Description: Therapeutic ratio by Subcutaneous dose of administration (quotient ED50 catalepsy/ED50 climbing)

[11] = target: 5-hydroxytryptamine receptor 2A (Rattus norvegicus, UniProt P14842); assay: biochemical
Chain of 5-hydroxytryptamine receptor 2A (P14842 whole entry): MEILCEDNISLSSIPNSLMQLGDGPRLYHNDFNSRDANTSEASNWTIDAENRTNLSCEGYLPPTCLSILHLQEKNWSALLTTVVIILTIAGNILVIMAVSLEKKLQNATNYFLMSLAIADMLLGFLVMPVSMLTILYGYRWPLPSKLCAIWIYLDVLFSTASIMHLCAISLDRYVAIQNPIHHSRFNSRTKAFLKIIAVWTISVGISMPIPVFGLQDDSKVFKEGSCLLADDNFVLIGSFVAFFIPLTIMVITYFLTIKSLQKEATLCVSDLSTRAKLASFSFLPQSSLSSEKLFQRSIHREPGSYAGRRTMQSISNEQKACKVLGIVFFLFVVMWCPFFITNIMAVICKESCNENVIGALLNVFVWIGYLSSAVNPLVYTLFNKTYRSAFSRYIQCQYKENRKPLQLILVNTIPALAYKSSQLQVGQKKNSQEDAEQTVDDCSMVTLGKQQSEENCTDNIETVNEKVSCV
Description: Binding affinity towards 5-hydroxytryptamine 2A receptor from rat frontal cortex using [3H]ketanserin as radioligand

[12] = target: T3, Adrenergic receptor alpha-1 (Rattus norvegicus, UniProt P15823+P23944+P43140); assay: In vitro binding affinity towards Alpha-1 adrenergic receptor by the displacement of [3H]prazosin radioligand in rat cortical homogenates
T3 sequence (P15823 whole entry): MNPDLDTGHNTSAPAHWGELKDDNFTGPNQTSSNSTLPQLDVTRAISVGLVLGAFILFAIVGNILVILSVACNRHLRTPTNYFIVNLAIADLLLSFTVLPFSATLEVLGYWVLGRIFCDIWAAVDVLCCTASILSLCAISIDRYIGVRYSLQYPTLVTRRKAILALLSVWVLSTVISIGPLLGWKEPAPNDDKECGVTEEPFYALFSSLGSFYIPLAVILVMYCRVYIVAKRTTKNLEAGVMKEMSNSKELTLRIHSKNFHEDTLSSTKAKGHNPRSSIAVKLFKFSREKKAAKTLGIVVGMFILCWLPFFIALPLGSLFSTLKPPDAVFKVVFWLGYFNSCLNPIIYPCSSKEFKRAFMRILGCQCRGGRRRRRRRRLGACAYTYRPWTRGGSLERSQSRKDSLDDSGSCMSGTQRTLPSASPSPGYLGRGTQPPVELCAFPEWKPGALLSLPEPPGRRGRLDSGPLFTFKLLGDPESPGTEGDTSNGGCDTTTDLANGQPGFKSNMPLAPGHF
T3 sequence (P23944 whole entry): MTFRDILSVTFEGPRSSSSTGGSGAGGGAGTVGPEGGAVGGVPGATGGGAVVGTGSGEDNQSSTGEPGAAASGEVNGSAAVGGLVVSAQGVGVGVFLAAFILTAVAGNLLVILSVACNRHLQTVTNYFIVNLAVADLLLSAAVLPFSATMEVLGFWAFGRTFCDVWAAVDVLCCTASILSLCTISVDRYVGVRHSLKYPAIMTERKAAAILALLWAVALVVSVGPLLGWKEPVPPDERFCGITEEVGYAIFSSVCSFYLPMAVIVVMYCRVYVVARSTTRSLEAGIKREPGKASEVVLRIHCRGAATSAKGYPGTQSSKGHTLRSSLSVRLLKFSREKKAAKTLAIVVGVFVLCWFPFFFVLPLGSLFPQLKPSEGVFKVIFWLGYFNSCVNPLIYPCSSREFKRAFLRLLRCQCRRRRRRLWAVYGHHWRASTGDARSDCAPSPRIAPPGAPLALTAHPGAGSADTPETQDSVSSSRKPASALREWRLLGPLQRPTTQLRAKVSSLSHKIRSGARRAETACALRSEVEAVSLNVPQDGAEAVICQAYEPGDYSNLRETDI
T3 sequence (P43140 whole entry): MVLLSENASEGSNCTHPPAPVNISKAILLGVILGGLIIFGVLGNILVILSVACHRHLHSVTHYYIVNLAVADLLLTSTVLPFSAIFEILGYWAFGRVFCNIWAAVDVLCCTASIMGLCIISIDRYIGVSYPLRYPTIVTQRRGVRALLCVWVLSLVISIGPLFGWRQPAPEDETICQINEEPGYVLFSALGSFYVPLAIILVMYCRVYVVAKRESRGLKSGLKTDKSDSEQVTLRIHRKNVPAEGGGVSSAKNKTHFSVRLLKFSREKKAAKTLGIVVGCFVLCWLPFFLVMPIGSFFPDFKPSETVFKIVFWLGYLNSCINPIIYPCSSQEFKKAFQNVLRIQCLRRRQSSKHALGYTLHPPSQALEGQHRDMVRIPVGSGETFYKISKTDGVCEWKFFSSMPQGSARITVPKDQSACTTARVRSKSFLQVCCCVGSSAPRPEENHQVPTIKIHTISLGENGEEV

D(4) dopamine receptor [13] = target: T1, D(4) dopamine receptor; assay: Compound was tested in vitro for its binding affinity towards human Dopamine receptor D4.2
Rattus norvegicus [14] = assay: Compound is measured for inhibition of catalepsy in rats by peroral administration of compound; format: functional; conditions: po
Rattus norvegicus [15] = assay: Compound is measured for inhibition of catalepsy in rats by subcutaneous administration of compound; format: functional; conditions: sc
[16] = target: T3, Adrenergic receptor alpha-1; assay: Binding affinity towards alpha-1 adrenergic receptor from rat brain membranes using [3H]prazosin as radioligand
[17] = target: T4, 5-hydroxytryptamine receptor 2C (Rattus norvegicus, UniProt P08909)
T4 sequence (P08909 whole entry): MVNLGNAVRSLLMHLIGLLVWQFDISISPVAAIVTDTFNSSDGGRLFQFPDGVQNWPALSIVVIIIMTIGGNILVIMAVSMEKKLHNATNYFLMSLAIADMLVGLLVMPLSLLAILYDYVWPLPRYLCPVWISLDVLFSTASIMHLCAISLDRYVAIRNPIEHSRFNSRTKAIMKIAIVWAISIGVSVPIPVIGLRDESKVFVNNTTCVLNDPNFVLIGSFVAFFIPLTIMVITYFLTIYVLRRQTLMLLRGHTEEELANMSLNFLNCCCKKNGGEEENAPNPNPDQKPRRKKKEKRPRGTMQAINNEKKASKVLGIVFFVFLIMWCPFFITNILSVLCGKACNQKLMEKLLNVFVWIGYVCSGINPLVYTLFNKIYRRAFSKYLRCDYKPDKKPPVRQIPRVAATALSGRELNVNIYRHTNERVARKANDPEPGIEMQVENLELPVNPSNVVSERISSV
Description: Binding affinity towards 5-HT2C receptor from rat using [3H]mesulergine as radioligand

D(1A) dopamine receptor = D(1A) dopamine receptor (Rattus norvegicus, UniProt P18901); assay: biochemical
Chain of D(1A) dopamine receptor (P18901 whole entry): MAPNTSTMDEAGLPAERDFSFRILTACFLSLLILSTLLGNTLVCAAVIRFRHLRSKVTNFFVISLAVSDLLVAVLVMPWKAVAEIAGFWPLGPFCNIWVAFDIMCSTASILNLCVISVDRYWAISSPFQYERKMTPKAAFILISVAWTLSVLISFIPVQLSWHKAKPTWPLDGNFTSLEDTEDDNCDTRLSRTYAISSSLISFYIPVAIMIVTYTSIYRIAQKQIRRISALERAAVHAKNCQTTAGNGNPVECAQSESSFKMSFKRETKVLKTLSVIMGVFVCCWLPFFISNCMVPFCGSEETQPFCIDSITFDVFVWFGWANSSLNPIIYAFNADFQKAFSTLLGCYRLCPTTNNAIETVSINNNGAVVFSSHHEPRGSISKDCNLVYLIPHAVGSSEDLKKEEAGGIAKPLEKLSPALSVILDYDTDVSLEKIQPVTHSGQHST
Description: Binding affinity towards D1 CNS receptor of rat corpus striatum using [3H]SCH-23390 as radioligand

Rattus norvegicus [18] = species: Rattus norvegicus; assay: Ex vivo accumulation of L-DOPA was measured in striatum of rats
[19] = Mus musculus, po, read-out: ED50

Structure (SMILES)	logP [1]	IC50 (D(4) dopamine receptor [2])	ED50 (Mus musculus [4])	IC50 [5]	ED50 (Rattus norvegicus [7])	Delta ED50 [9]	IC50 (D(3) dopamine receptor)	selectivity ratio (in vivo)	IC50 [11]	IC50 [16]	IC50 [17]	IC50 (D(1A) dopamine receptor)	further results
CN1CCN(C2=Nc3ccccc3Nc3ccc(OS(=O)(=O)C(F)(F)F)cc32)CC1	3.58	120 nM	2.1 mg/kg	> 1000 nM	> 44 mg/kg	>41.9 mg/kg	53 nM	> 20	43 nM	–	–	–	ED50 (Mus musculus [3]; [19]): 11 mg/kg; ED50 (Rattus norvegicus [6]): > 100 mg/kg; selectivity ratio [8]: > 9; Delta ED50 [10]: >89 mg/kg
CN1CCN(C2=Nc3ccccc3Oc3ccc(Cl)cc32)CC1 [LOXAPINE]	–	–	–	5500 nM	–	–	22 nM	–	–	–	–	–	IC50 [12]: 18 nM; IC50 (D(4) dopamine receptor [13]): 14 nM; ED50 (Mus musculus [3]): 0.04 mg/kg; ED50 (Mus musculus [3]; [19]): 0.04 mg/kg; ED50 (Rattus norvegicus [14]): < 1 mg/kg; ED50 (Rattus norvegicus [15]): 0.35 mg/kg
CN1CCN(C2=Nc3cc(Cl)ccc3Nc3ccc(OS(=O)(=O)C(F)(F)F)cc32)CC1	4.3	490 nM	8.2 mg/kg	54 nM	> 50 mg/kg	>41.8 mg/kg	52 nM	> 6.1	23 nM	7.1 nM	13 nM	200 nM	–
CN1CCN(C2=Nc3cc(OS(C)(=O)=O)ccc3Nc3ccccc32)CC1	1.8	–	–	38 nM	–	–	–	–	4900 nM	8700 nM	7400 nM	22000 nM	–
CN1CCN(C2=Nc3ccccc3Nc3ccc(Cl)cc32)CC1 [ISOCLOZAPINE]	3.48	110 nM	1.7 mg/kg	–	2 mg/kg	0.3 mg/kg	120 nM	–	–	–	–	–	–
O=C(CCCN1CCC(O)(c2ccc(Cl)cc2)CC1)c1ccc(F)cc1 [HALOPERIDOL]	3.98	–	0.1 mg/kg	–	0.25 mg/kg	–	–	–	–	–	–	–	ED50 (Rattus norvegicus [6]): 1.5 mg/kg; ED50 (Rattus norvegicus [18]): 0.1 mg/kg
CN1CCN(C2=Nc3ccccc3Nc3ccc(O)cc32)CC1	2.21	–	–	–	–	–	–	–	–	–	–	–	–
COc1ccc2c(c1)C(N1CCN(C)CC1)=Nc1ccccc1N2	2.71	–	–	–	–	–	–	–	–	–	–	–	–
CN1CCN(C2=Nc3ccccc3Sc3ccc(OS(=O)(=O)C(F)(F)F)cc32)CC1	4.04	570 nM	2.6 mg/kg	460 nM	30 mg/kg	27.4 mg/kg	8 nM	11.5	110 nM	3.6 nM	280 nM	100 nM	–
